US20210100905A1, “APPLICATION OF COMPOUND OR TRADITIONAL CHINESE MEDICINE EXTRACT IN PREPARATION OF NUCLEIC ACID DELIVERY AGENT, AND RELATED PRODUCTS” (INSTITUTE OF BASIC MEDICAL SCIENCES CHINESE ACADEMY OF …, priority 2018, published 2021)

Test: In vivo delivery experiment of lipid nucleic acid mixture (Example 13)
Set-up: species or system C57 mice
Conditions: oral administration, 6 hours; for delivery effect into mouse blood and tissues (heart, spleen, kidney or intestine) compared with POPC: FIG. 117a-146b, 100 μg lipid : 1 nmol sRNA; for delivery of small RNA (PGY-sRNA-26) into kidney / delivery of small RNA (PGY-sRNA-26) into spleen / delivery of small RNA (PGY-sRNA-26) into blood / delivery of small RNA (PGY-sRNA-26) into heart / delivery of small RNA (PGY-sRNA-26) into intestine: 100 μg lipid : 1 nmol sRNA per mouse, 90° C. 15 min
Method: 1. Experiment animals: C57 mice, male, approximately 6 weeks old, 20-24g. Mice were raised in the SPF room of the Animal Center of the Institute of Basic Medical Sciences of Chinese Academy of Medical Sciences. The mice were fasted for 12 hours before intragastric administration.
2. Preparation of the mixture of lipid and small RNA: the prepration was conducted on the basis of a dose of 100 μg lipid: lnmol single stranded small RNA PGY-sRNA-26 per mouse as follows: lnmol of each sRNA was dissolved with 500 μl DEPC water in a glass tube, 100 μg corresponding lipid solution No.33, No.35,No.37, No.42, No.43, No.44, No.45, No.46, No.47, No.48, No.49, No.50, No.51, No.52, No.53, No.54, No.55, No.56, No.57, No.58, No.59, No.60, No.61, No.62, No.65, No.66, No.67, No.68, No.69 or No.70 (lipid chloroform solution with a concentration as shown in Table 1-1) was added, pipetted to mix thoroughly. The solution was heated in water bath at 90° C. for 15 min, naturally cooled down, and was administered via gavage.
1) Tissue sampling and extraction of RNA: 6 hours after gavage in mice, 500 μl of blood was taken from the eyeball, and was added 1.5 ml Trizol Reagent LS to thoroughly mix and lyse. Tissue sampling: the mouse was sarcrified by breaking its neck, and the thoracic and abdominal cavities of the mouse was exposed to remove the heart/whole spleen/two kidneys/intestine (5 cm of upper end), which was immediately added 2 ml Trizol Reagent (purchased from Invitrogen) and homogenized until complete lysis with a tissue homogenizer.
2) Reverse transcription of sRNA to cDNA: Reverse Transcription Kit (High-Capacity cDNA Reverse Transcription Kits, Applied Biosystems, cat. no. 4368813), was used to reverse transcribe the total RNA to cDNA, and the reverse system was as follows: template RNA (150 ng/μL) 10 μL, 10× RT buffer, 2.0 μL, 25× dNTP Mix (100 mM) 0.8 μL, random primers 2.0 μL, the Multi Scribe™ reverse Transcriptase 1.0 RNase inhibitor 1.0 μL, nuclease-free H2O 3.2 μL. After a brief centrifugation, the reaction was loaded in a PCR reactor. The reaction conditions were as follows: (1) 25° C., 10 min; (2) 37° C., 120 min; (3) 85° C., 5 min; (4) 4° C., termination of the reaction. After the reaction, 20 μL RNase-free ddH2O was added to make up the final volume to 40 μL.
LightCycler 480 fluorescence quantitative PCR instrument was used, and the PCR reaction conditions were: 95° C. , 5 min for pre-denaturation, followed by the PCR amplification cycle: (1) 95° C., 10 s; (2) 55° C., 10 s; (3) 72° C., 20 s; a total of 40 cycles; 40° C. for 10 s in the end to cool down. The forward primer and reverse primer of the amplification reaction were designed and synthesized by Beijing Qing Ke New Industrial Biotechnology Co., Ltd. (U6 F primer: GTGCAGGGTCCGAGGT (SEQ ID NO: 24), PGY-sRNA-26F primer: […] (SEQ ID NO: 34), reverse primer miR all rev: GTGCACGCTCCGAGGT (SEQ ID NO: 26)).
3) The relative expression amount was calculated by the 2-ΔCt method.
The data were represented in the form of mean±SEM. The parameter difference between the experimental group and the control group was evaluated by unpaired t test. The data were statistically analyzed by GraphPad Prism software, and P<0.05 was considered statistically significant.

CCCCCC/C=C\CCCCCCCCCC(=O)OC[C@H](COP(=O)(O)OCC[N+](C)(C)C)OC(=O)CCCCCCC/C=C\CCCCCC (stereo in doubt) [No. 69, 1-vaccenoyl-2-palmitoleoyl-sn-glycero-3-phosphocholine]
delivery effect into mouse blood and tissues (heart, spleen, kidney or intestine) compared with POPC: significantly better than or equivalent to that of POPC
delivery of small RNA (PGY-sRNA-26) into kidney: delivers small RNA
delivery of small RNA (PGY-sRNA-26) into spleen: delivers small RNA

CCCCCCCCCCCCCCCCCC(=O)OCC(COC(=O)CCCCCCCCCCCCCCCCC)OC(=O)CCCCCCCCCCCCCCC [No. 33, 1,3-Stearin-2-Palmitin 1,3-Octadecanoyl-2-Palmitoyl-glycerol]
delivery effect into mouse blood and tissues (heart, spleen, kidney or intestine) compared with POPC: significantly better than or equivalent to that of POPC
delivery of small RNA (PGY-sRNA-26) into blood: delivers small RNA
delivery of small RNA (PGY-sRNA-26) into heart: delivers small RNA
delivery of small RNA (PGY-sRNA-26) into kidney: delivers small RNA

CCCCC/C=C\C/C=C\CCCCCCCC(=O)OC[C@H](CO)OC(=O)CCCCCCC/C=C\C/C=C\CCCCC [No. 35, (2S)-1-hydroxy-3-[(9Z,12Z)-octadeca-9,12-dienoyloxy] propan-2-yl (9Z,12Z)-octadeca-9,12-dienoate]
delivery effect into mouse blood and tissues (heart, spleen, kidney or intestine) compared with POPC: significantly better than or equivalent to that of POPC
delivery of small RNA (PGY-sRNA-26) into heart: delivers small RNA
delivery of small RNA (PGY-sRNA-26) into kidney: delivers small RNA

CC/C=C\C/C=C\C/C=C\CCCCCCCC(=O)OCC(O)COC(=O)CCCCCCC/C=C\C/C=C\CCCCC (stereo not shown) [No. 45, 1-Linolein-3-Linolenin]
delivery effect into mouse blood and tissues (heart, spleen, kidney or intestine) compared with POPC: significantly better than or equivalent to that of POPC
delivery of small RNA (PGY-sRNA-26) into heart: delivers small RNA
delivery of small RNA (PGY-sRNA-26) into intestine: delivers small RNA
delivery of small RNA (PGY-sRNA-26) into kidney: delivers small RNA
delivery of small RNA (PGY-sRNA-26) into spleen: delivers small RNA

CCCCCCCCCCCCCCCC(=O)N[C@@H](CO)[C@H](O)CCCCCCCCCCCCC [No. 53, C16 dihydroceramide (d16:0/16:0)]
delivery effect into mouse blood and tissues (heart, spleen, kidney or intestine) compared with POPC: significantly better than or equivalent to that of POPC
delivery of small RNA (PGY-sRNA-26) into blood: delivers small RNA
delivery of small RNA (PGY-sRNA-26) into heart: delivers small RNA
delivery of small RNA (PGY-sRNA-26) into kidney: delivers small RNA

CCCCCCCCCCCCCCCCCC(=O)N[C@@H](CO)[C@H](O)CCCCCCCCCCCCCCCCC [No. 54, C18 dihydroceramide (d20:0/18:0)]
delivery effect into mouse blood and tissues (heart, spleen, kidney or intestine) compared with POPC: significantly better than or equivalent to that of POPC
delivery of small RNA (PGY-sRNA-26) into blood: delivers small RNA
delivery of small RNA (PGY-sRNA-26) into kidney: delivers small RNA

CCCCCCCCCCCCCCCCCCC[C@@H](O)[C@H](CO)NC(=O)CCCCCCCCCCCCCCCCC [No. 55, C18 dihydroceramide (d22:0/18:0)]
delivery effect into mouse blood and tissues (heart, spleen, kidney or intestine) compared with POPC: significantly better than or equivalent to that of POPC
delivery of small RNA (PGY-sRNA-26) into blood: delivers small RNA
delivery of small RNA (PGY-sRNA-26) into heart: delivers small RNA
delivery of small RNA (PGY-sRNA-26) into kidney: delivers small RNA

CC/C=C\C/C=C\C/C=C\CCCCCCCC(=O)OCC(COC(=O)CCCCCCCCCCCCCCC)OC(=O)CCCCCCC/C=C\C/C=C\CCCCC (stereo not shown) [No. 56, Triglyceride (16:0/18:2/ 18:3)]
delivery effect into mouse blood and tissues (heart, spleen, kidney or intestine) compared with POPC: significantly better than or equivalent to that of POPC
delivery of small RNA (PGY-sRNA-26) into blood: delivers small RNA
delivery of small RNA (PGY-sRNA-26) into heart: delivers small RNA

CC/C=C\C/C=C\C/C=C\CCCCCCCC(=O)OCC(COC(=O)CCCCCCC/C=C\CCCCCCCC)OC(=O)CCCCCCC/C=C\C/C=C\CCCCC (stereo not shown) [No. 57, Triglyceride (18:1/18:2/ 18:3)]
delivery effect into mouse blood and tissues (heart, spleen, kidney or intestine) compared with POPC: significantly better than or equivalent to that of POPC
delivery of small RNA (PGY-sRNA-26) into kidney: delivers small RNA

CCCCCC/C=C\CCCCCCCC(=O)OC[C@H](COP(=O)(O)OCC)OC(=O)CCCCCCC/C=C\CCCCCC [No. 58, 1,2-dipalmitoleoyl-sn-glycero-3-phosphoethanol]
delivery effect into mouse blood and tissues (heart, spleen, kidney or intestine) compared with POPC: significantly better than or equivalent to that of POPC
delivery of small RNA (PGY-sRNA-26) into heart: delivers small RNA
delivery of small RNA (PGY-sRNA-26) into intestine: delivers small RNA

CCCCCC/C=C\CCCCCCCC(=O)OC[C@H](COP(=O)(O)OCCN(C)C)OC(=O)CCCCCCCCCCCCC [No. 59, 1-palmitoleoyl-2-myristoyl-sn-glycero-3-phospho-ethanolamine-N,N-dimethyl]
delivery effect into mouse blood and tissues (heart, spleen, kidney or intestine) compared with POPC: significantly better than or equivalent to that of POPC
delivery of small RNA (PGY-sRNA-26) into intestine: delivers small RNA

CCCCCCCC/C=C\CCCCCCCC(=O)OC[C@H](COP(=O)(O)OCCN(C)C)OC(=O)CCCCCCCCCCCCC [No. 61, 1-oleoyl-2-myristoyl-sn-glycero-3-phospho-ethanolamine-N,N-dimethyl]
delivery effect into mouse blood and tissues (heart, spleen, kidney or intestine) compared with POPC: significantly better than or equivalent to that of POPC
delivery of small RNA (PGY-sRNA-26) into heart: delivers small RNA
delivery of small RNA (PGY-sRNA-26) into intestine: delivers small RNA
delivery of small RNA (PGY-sRNA-26) into kidney: delivers small RNA

CCCC/C=C\CCCCCCCC(=O)O[C@H](COC(=O)CCCCCCCCCCCCCCCCCCC)COP(=O)(O)OCC[N+](C)(C)C [No. 65, 1-eicosanoyl-2-myristoleoyl-sn-glycero-3-phosphocholine]
delivery effect into mouse blood and tissues (heart, spleen, kidney or intestine) compared with POPC: significantly better than or equivalent to that of POPC
delivery of small RNA (PGY-sRNA-26) into intestine: delivers small RNA
delivery of small RNA (PGY-sRNA-26) into kidney: delivers small RNA

CC/C=C\C/C=C\C/C=C\CCCCCCCC(=O)OCC(COC(=O)CCCCCCCCCCCCCCCCC)OC(=O)CCCCCCC/C=C\C/C=C\CCCCC (stereo not shown) [No. 66, Triglyceride (18:0/18:2/ 18:3)]
delivery effect into mouse blood and tissues (heart, spleen, kidney or intestine) compared with POPC: significantly better than or equivalent to that of POPC
delivery of small RNA (PGY-sRNA-26) into blood: delivers small RNA
delivery of small RNA (PGY-sRNA-26) into heart: delivers small RNA
delivery of small RNA (PGY-sRNA-26) into intestine: delivers small RNA

CC/C=C\C/C=C\C/C=C\C/C=C\C/C=C\CCCC(=O)OCC(COC(=O)CCCCCCC/C=C\CCCCCCCC)OC(=O)CCCCCCC/C=C\C/C=C\CCCCC (stereo not shown) [No. 67, Triglyceride (18:1/18:2 /20:5)]
delivery effect into mouse blood and tissues (heart, spleen, kidney or intestine) compared with POPC: significantly better than or equivalent to that of POPC
delivery of small RNA (PGY-sRNA-26) into heart: delivers small RNA
delivery of small RNA (PGY-sRNA-26) into intestine: delivers small RNA
delivery of small RNA (PGY-sRNA-26) into spleen: delivers small RNA

CC/C=C\C/C=C\C/C=C\C/C=C\C/C=C\CCCC(=O)OCC(COC(=O)CCCCCCC/C=C\C/C=C\CCCCC)OC(=O)CCCCCCC/C=C\C/C=C\CCCCC (stereo not shown) [No. 68, Triglyceride (20:5/18:2/ 18:2)]
delivery effect into mouse blood and tissues (heart, spleen, kidney or intestine) compared with POPC: significantly better than or equivalent to that of POPC
delivery of small RNA (PGY-sRNA-26) into heart: delivers small RNA
delivery of small RNA (PGY-sRNA-26) into intestine: delivers small RNA
delivery of small RNA (PGY-sRNA-26) into spleen: delivers small RNA

Dilinolenin [No. 70]
delivery effect into mouse blood and tissues (heart, spleen, kidney or intestine) compared with POPC: significantly better than or equivalent to that of POPC
delivery of small RNA (PGY-sRNA-26) into heart: delivers small RNA
delivery of small RNA (PGY-sRNA-26) into spleen: delivers small RNA
